Measured values published in patent US10253002B2, “Compounds and methods of treating infections” (Neoculi Pty Ltd., priority 2013, dated 2019).
Converted amounts (≈) assume the structure as drawn. “And” between values parts separate entries of the source, which are not always exact repeats. Equal entries are not always repeated. One block for each compound: values may come before it.

Experiments:
[1] = test system: S. pneumoniae isolates; experiment: Disk diffusion susceptibility (CLSI/EUCAST), Example 5; assay type: cell-based, Streptococcus pneumoniae
Experimental: Isolate susceptibility to 12 different antimicrobials (Table 16) was determined by CLSI and European Committee on Antimicrobial Susceptibility Testing (EUCAST) methods. Antimicrobials were selected based upon the CLSI and EUCAST guidelines. Standardised bacterial suspensions were spread onto MHSBA using a sterile cotton swab. Bacterial suspensions from of Streptococcus pneumoniae were standardised to an OD6O0 between 0.08 and 0.1 using a spectrophotometer and then diluted 1:20. Bacterial colonies were taken from an O/N horse blood agar plate. To ensure the purity of the 1:20 bacterial suspension, 50 μL was spread plated onto horse blood agar and incubated O/N at 37° C. with 5% CO2. The CFU was calculated and compared to the initial plate counts. Antibiotic disks (Purchased from Sigma Aldrich) were placed using a disk dispenser (Purchased from Oxoid) according to CLSI standards. MHSBA plates were incubated for 16 h-24 h at 37° C. in 5% CO2. Zones of complete inhibition were measured in triplicate to the nearest millimeter using a ruler on natural light-reflected growth, and the mode was represented as the diameter for each isolate. Pneumococcal isolates were categorised as sensitive, intermediate (I) or resistant (R) by CLSI standards and quality control (QC) ranges (Table 16).

[2] = test system: MRSA; experiment: Broth microdilution MIC, Example 7 (NCL812 and analogues); assay type: cell-based, Staphylococcus aureus; conditions: 24 hours, duplicate lines per compound
Procedure, shortened: (§1)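 Values are MICs in μg/ml from broth microdilution per CLSI, with growth scored against a drug-free well.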

[3] = test system: VRE; experiment: as above; assay type: cell-based, Enterococcus spp.; conditions: 24 hours, duplicate lines per compound
Procedure, shortened: as §1

[4] = test system: Escherichia coli; experiment: as above; assay type: cell-based; conditions: E. coli; 24 hours; duplicate lines per compound
[5] = test system: Pseudomonas aeruginosa; experiment: as above; assay type: cell-based; conditions: P. aeruginosa; 24 hours; duplicate lines per compound

Structure (SMILES): CC[C@H]1OC(=O)[C@H](C)[C@@H](O[C@H]2C[C@@](C)(OC)[C@@H](O)[C@H](C)O2)[C@H](C)[C@@H](O[C@@H]2O[C@H](C)C[C@H](N(C)C)[C@H]2O)[C@](C)(OC)C[C@@H](C)C(=O)[C@H](C)[C@@H](O)[C@]1(C)O [Clarithromycin]
disk diffusion zone diameter ([1]; A66.1): 30 mm
disk diffusion zone diameter ([1]; D39): 32 mm
disk diffusion zone diameter ([1]; EF3030): 32 mm
disk diffusion zone diameter ([1]; L82016): 34 mm
disk diffusion zone diameter ([1]; P9): 40 mm
disk diffusion zone diameter ([1]; P21): 38 mm
disk diffusion zone diameter ([1]; TIGR4): 35 mm
disk diffusion zone diameter ([1]; WCH16): 33 mm
disk diffusion zone diameter ([1]; WCH43): 28 mm
disk diffusion zone diameter ([1]; WCH46): 39 mm
disk diffusion zone diameter ([1]; WCH57): 39 mm
disk diffusion zone diameter ([1]; WCH77): 37 mm
disk diffusion zone diameter ([1]; WCH86): 36 mm
disk diffusion zone diameter ([1]; WCH89): 31 mm
disk diffusion zone diameter ([1]; WCH92): 27 mm
disk diffusion zone diameter ([1]; WCH137): 33 mm
disk diffusion zone diameter ([1]; WCH158): 38 mm
disk diffusion zone diameter ([1]; WCH184): 10 mm
disk diffusion susceptibility category ([1]; WCH184 (Table 18)): R
disk diffusion zone diameter ([1]; WCH211): 33 mm
disk diffusion zone diameter ([1]; WU2): 31 mm

Structure (SMILES): Cl.N=C(NN=Cc1ccc(OC(F)(F)F)cc1)NN=Cc1ccc(OC(F)(F)F)cc1 [NCL 160]
MIC (μg/ml) at 24 hours, MRSA 1 [2]: 32 µg/mL and 64 µg/mL
MIC (μg/ml) at 24 hours, MRSA 2 [2]: 128 µg/mL
MIC (μg/ml) at 24 hours, VRE 1 [3]: 16 µg/mL
MIC (μg/ml) at 24 hours, VRE 2 [3]: 64 µg/mL
MIC (μg/ml) at 24 hours, E. coli [4]: >128 µg/mL
MIC (μg/ml) at 24 hours, P. aeruginosa [5]: >128 µg/mL

Structure (SMILES): Cl.N=C(NN=C1C(=O)Nc2ccccc21)NN=C1C(=O)Nc2ccccc21 [NCL 163]
MIC (μg/ml) at 24 hours, MRSA 1 [2]: >128 µg/mL
MIC (μg/ml) at 24 hours, MRSA 2 [2]: >128 µg/mL
MIC (μg/ml) at 24 hours, VRE 1 [3]: >128 µg/mL
MIC (μg/ml) at 24 hours, VRE 2 [3]: >128 µg/mL
MIC (μg/ml) at 24 hours, E. coli [4]: >128 µg/mL
MIC (μg/ml) at 24 hours, P. aeruginosa [5]: >128 µg/mL

Structure (SMILES): CC(=NNC(=N)NN=C(C)c1ccc(Cl)cc1N)c1ccc(Cl)cc1N.Cl [NCL 164]
MIC (μg/ml) at 24 hours, MRSA 1 [2]: >128 µg/mL
MIC (μg/ml) at 24 hours, MRSA 2 [2]: >128 µg/mL
MIC (μg/ml) at 24 hours, VRE 1 [3]: >128 µg/mL
MIC (μg/ml) at 24 hours, VRE 2 [3]: >128 µg/mL
MIC (μg/ml) at 24 hours, E. coli [4]: >128 µg/mL
MIC (μg/ml) at 24 hours, P. aeruginosa [5]: >128 µg/mL

Next, values leading:

MIC (μg/ml) at 24 hours, MRSA 1 [2]: 64 µg/mL and 128 µg/mL
MIC (μg/ml) at 24 hours, MRSA 2 [2]: 128 µg/mL
MIC (μg/ml) at 24 hours, VRE 1 [3]: 128 µg/mL
MIC (μg/ml) at 24 hours, VRE 2 [3]: 128 µg/mL
MIC (μg/ml) at 24 hours, E. coli [4]: >128 µg/mL
MIC (μg/ml) at 24 hours, P. aeruginosa [5]: >128 µg/mL
Structure (SMILES): CC(=NNC(=N)NN=C(C)c1ccc(N2CCNCC2)cc1)c1ccc(N2CCNCC2)cc1.Cl [NCL 161]

MIC (μg/ml) at 24 hours, MRSA 1 [2]: >128 µg/mL
MIC (μg/ml) at 24 hours, MRSA 2 [2]: 128 µg/mL (≈ 534 µM)
MIC (μg/ml) at 24 hours, VRE 1 [3]: >128 µg/mL
MIC (μg/ml) at 24 hours, VRE 2 [3]: >128 µg/mL
MIC (μg/ml) at 24 hours, E. coli [4]: >128 µg/mL
MIC (μg/ml) at 24 hours, P. aeruginosa [5]: >128 µg/mL
Structure (SMILES): CCO/C(N)=N/N=C(\C)c1ccc(Cl)cc1 [NCL 162]

MIC (μg/ml) at 24 hours, MRSA 1 [2]: >128 µg/mL
MIC (μg/ml) at 24 hours, MRSA 2 [2]: >128 µg/mL
MIC (μg/ml) at 24 hours, VRE 1 [3]: >128 µg/mL
MIC (μg/ml) at 24 hours, VRE 2 [3]: >128 µg/mL
MIC (μg/ml) at 24 hours, E. coli [4]: >128 µg/mL
MIC (μg/ml) at 24 hours, P. aeruginosa [5]: >128 µg/mL
Structure (SMILES): Cl.Cl.Cl.N=C(NN=C(CN)c1ccccc1)NN=C(CN)c1ccccc1 [NCL 165]

MIC (μg/ml) at 24 hours, MRSA 1 [2]: 32 µg/mL
MIC (μg/ml) at 24 hours, MRSA 2 [2]: 64 µg/mL
MIC (μg/ml) at 24 hours, VRE 1 [3]: 8 µg/mL
MIC (μg/ml) at 24 hours, VRE 2 [3]: 128 µg/mL
MIC (μg/ml) at 24 hours, E. coli [4]: >128 µg/mL
MIC (μg/ml) at 24 hours, P. aeruginosa [5]: >128 µg/mL
Structure (SMILES): Cl.N=C(NN=Cc1ccc(SC(F)(F)F)cc1)NN=Cc1ccc(SC(F)(F)F)cc1 [NCL 166]

MIC (μg/ml) at 24 hours, MRSA 1 [2]: >128 µg/mL
MIC (μg/ml) at 24 hours, MRSA 2 [2]: >128 µg/mL
MIC (μg/ml) at 24 hours, VRE 1 [3]: >128 µg/mL
MIC (μg/ml) at 24 hours, VRE 2 [3]: >128 µg/mL
MIC (μg/ml) at 24 hours, E. coli [4]: >128 µg/mL
MIC (μg/ml) at 24 hours, P. aeruginosa [5]: >128 µg/mL
Structure (SMILES): Cl.N=C(NN=C(C(=O)O)c1ccccc1)NN=C(C(=O)O)c1ccccc1 [NCL 167]
